The text below walks through data of ChEMBL document CHEMBL5653631, “A Potent and Selective ULK1 Inhibitor Suppresses Autophagy and Sensitizes Cancer Cells to Nutrient Stress” (iScience, 2018).

Experiment [1] has as its target T1, Dual specificity mitogen-activated protein kinase kinase 6 (Homo sapiens) (UniProt P52564).
T1 sequence (whole entry): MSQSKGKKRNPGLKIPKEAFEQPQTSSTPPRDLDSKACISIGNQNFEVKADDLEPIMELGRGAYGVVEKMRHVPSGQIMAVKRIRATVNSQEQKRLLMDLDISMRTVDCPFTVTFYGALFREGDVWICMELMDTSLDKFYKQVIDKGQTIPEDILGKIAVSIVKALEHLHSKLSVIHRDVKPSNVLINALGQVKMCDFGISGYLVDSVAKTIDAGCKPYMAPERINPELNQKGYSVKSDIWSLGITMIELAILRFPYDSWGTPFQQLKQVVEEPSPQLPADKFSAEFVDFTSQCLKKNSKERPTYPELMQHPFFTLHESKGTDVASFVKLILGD
The experiment in a line: Inhibition of human recombinant MAP2K6 at 40 nM in presence of ATP by radiometric assay relative to control.

In experiment [2] the target is [Pyruvate dehydrogenase (acetyl-transferring)] kinase isozyme 4, mitochondrial (Homo sapiens) (UniProt Q16654). In words: Inhibition of human recombinant PDHK4 at 40 nM related to control ULK1.
Experiment [3] concerns the target T2, Bone morphogenetic protein receptor type-2 (Homo sapiens) (UniProt Q13873).
T2 sequence (whole entry): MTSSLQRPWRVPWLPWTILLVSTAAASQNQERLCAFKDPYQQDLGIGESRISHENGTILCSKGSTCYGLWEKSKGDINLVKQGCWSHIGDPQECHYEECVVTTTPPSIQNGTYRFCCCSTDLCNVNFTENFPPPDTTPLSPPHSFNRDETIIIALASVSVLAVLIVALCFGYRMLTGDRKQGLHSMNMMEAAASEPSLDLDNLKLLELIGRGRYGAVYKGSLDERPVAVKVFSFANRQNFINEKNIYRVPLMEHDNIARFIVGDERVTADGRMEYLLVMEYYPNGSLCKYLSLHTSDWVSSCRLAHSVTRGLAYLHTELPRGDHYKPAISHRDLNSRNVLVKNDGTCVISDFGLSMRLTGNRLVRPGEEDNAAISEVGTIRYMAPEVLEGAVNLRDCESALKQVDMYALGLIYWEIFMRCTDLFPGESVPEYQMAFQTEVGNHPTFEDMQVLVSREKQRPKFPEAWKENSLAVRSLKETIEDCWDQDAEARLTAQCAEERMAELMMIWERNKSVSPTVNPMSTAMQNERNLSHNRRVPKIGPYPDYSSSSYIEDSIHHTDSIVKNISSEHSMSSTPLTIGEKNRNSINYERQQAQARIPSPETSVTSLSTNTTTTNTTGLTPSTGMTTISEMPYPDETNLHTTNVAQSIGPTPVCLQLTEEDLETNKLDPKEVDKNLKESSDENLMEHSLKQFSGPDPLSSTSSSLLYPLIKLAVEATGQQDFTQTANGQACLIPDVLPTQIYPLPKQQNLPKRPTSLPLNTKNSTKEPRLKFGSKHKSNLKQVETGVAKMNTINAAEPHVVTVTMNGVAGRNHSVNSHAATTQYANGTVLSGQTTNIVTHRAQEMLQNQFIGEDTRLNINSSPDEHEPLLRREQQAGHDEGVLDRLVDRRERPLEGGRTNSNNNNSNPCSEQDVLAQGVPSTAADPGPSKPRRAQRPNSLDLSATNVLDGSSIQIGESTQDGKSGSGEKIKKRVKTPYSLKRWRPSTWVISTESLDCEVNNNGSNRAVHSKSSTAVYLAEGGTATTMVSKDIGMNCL
The experiment in a line: Inhibition of human recombinant BMPR2 at 40 nM in presence of ATP by radiometric assay relative to control.

The target in experiment [4] is Calcium/calmodulin-dependent protein kinase type II subunit alpha (Homo sapiens) (UniProt Q9UQM7). The experiment in a line: Inhibition of human recombinant CaMK2a at 500 nM in presence of ATP by radiometric assay relative to control.
In experiment [5] the target is Leukocyte tyrosine kinase receptor (Homo sapiens) (UniProt P29376). The experiment in a line: Inhibition of human recombinant LTK at 500 nM in presence of ATP by radiometric assay relative to control.
The target of experiment [6] is Tau-tubulin kinase 2 (Homo sapiens) (UniProt Q6IQ55). In words: Inhibition of human recombinant TTBK2 at 500 nM in presence of ATP by radiometric assay relative to control.
For experiment [7], the target named is Serine/threonine-protein kinase SIK1 (Homo sapiens) (UniProt P57059). The experiment in a line: Inhibition of human recombinant SIK at 500 nM in presence of ATP by radiometric assay relative to control.
The target of experiment [8] is T3, cGMP-dependent protein kinase 2 (Homo sapiens) (UniProt Q13237).
T3 sequence (whole entry): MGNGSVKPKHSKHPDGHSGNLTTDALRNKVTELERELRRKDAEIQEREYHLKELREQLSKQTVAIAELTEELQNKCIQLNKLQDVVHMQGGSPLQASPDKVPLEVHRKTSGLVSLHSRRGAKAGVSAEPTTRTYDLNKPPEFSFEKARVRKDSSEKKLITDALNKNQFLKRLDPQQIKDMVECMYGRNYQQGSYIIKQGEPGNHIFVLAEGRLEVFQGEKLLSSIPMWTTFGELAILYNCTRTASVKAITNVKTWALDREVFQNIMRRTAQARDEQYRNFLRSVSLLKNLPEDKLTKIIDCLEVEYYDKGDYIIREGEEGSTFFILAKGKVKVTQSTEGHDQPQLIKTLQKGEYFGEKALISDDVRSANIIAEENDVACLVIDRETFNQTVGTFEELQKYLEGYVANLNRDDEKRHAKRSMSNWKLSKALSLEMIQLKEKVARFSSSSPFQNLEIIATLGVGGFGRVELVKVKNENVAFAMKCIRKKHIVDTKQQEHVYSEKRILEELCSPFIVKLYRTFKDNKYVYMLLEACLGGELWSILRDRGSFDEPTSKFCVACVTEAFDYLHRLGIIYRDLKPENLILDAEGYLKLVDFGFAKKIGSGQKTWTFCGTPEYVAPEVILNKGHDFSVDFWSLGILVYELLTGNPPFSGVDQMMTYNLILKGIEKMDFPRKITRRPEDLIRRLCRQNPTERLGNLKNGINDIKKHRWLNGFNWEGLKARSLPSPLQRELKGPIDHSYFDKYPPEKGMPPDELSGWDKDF
The experiment in a line: Inhibition of human recombinant PKG2 at 15 nM in presence of ATP by radiometric assay relative to control.

For a further experiment, the species on record is Homo sapiens. The experiment in a line: Inhibition of human recombinant KHS1 at 15 nM related to control ULK1.
The target of experiment [9] is Mitogen-activated protein kinase kinase kinase kinase 1 (Homo sapiens) (UniProt Q92918). The experiment in a line: Inhibition of human recombinant HPK1 at 15 nM in presence of ATP by radiometric assay relative to control.
For experiment [10], the target named is Tyrosine-protein kinase JAK1 (Homo sapiens) (UniProt P23458). In words: Inhibition of human recombinant JAK1 at 15 nM related to control ULK1.
In experiment [11] the target is Platelet-derived growth factor receptor alpha (Homo sapiens) (UniProt P16234). In words: Inhibition of human recombinant PDGFRa at 15 nM related to control ULK1.
The target of experiment [12] is Ribosomal protein S6 kinase alpha-1 (Homo sapiens) (UniProt Q15418). In words: Inhibition of human recombinant RSK1 at 15 nM related to control ULK1.

Sequence of Platelet-derived growth factor receptor alpha (Homo sapiens) (P16234 whole entry): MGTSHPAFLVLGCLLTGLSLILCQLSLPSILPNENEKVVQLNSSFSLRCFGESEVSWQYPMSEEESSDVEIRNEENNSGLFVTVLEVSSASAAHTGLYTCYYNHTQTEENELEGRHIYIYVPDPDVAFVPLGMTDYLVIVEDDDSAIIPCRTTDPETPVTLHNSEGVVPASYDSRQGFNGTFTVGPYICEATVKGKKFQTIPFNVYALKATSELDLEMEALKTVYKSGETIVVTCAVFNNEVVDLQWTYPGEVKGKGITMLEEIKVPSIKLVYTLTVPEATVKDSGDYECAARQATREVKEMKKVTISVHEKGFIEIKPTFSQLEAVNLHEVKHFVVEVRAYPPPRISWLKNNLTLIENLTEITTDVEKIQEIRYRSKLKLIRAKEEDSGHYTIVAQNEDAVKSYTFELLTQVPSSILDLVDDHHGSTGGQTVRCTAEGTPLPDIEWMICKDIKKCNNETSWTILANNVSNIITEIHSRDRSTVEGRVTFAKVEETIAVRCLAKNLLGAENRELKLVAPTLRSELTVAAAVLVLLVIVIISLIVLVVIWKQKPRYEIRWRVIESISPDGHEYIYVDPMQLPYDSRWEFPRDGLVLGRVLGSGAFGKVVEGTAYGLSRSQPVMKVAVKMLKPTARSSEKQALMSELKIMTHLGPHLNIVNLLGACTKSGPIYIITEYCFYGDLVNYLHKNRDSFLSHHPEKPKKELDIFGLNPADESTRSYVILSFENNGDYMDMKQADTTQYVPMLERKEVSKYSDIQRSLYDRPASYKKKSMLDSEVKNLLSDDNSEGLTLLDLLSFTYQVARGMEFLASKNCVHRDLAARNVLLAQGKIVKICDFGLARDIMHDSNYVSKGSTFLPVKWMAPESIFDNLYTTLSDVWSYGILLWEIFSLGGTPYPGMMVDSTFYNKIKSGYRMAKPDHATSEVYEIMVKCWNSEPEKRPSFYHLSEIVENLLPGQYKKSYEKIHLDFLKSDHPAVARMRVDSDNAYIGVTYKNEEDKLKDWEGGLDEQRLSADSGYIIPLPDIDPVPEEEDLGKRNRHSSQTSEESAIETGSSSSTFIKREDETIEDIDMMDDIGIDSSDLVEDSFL
Sequence of Mitogen-activated protein kinase kinase kinase kinase 1 (Homo sapiens) (Q92918 whole entry, looked up): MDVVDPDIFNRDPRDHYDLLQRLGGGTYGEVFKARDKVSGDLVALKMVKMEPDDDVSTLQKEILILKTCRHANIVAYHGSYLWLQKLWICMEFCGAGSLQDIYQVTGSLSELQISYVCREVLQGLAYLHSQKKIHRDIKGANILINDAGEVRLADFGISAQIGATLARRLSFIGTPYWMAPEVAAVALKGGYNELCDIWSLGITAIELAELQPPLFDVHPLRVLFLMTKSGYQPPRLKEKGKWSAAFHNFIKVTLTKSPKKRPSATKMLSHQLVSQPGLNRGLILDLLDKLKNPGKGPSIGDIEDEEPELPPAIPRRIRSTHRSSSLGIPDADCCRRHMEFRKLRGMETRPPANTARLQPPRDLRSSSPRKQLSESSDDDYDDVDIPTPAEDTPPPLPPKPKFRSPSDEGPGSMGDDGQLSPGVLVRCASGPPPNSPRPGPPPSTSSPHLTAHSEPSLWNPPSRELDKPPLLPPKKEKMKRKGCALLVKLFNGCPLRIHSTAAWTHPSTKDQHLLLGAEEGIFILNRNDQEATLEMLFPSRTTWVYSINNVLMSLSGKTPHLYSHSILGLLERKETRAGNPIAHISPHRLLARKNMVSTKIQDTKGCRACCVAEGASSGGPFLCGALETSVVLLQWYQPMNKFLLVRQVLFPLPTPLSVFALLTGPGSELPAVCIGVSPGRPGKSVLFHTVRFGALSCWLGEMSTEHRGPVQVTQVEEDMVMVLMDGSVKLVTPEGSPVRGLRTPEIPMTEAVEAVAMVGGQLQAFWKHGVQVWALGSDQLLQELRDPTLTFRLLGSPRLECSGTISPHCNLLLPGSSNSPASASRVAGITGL
Sequence of Leukocyte tyrosine kinase receptor (Homo sapiens) (P29376 whole entry): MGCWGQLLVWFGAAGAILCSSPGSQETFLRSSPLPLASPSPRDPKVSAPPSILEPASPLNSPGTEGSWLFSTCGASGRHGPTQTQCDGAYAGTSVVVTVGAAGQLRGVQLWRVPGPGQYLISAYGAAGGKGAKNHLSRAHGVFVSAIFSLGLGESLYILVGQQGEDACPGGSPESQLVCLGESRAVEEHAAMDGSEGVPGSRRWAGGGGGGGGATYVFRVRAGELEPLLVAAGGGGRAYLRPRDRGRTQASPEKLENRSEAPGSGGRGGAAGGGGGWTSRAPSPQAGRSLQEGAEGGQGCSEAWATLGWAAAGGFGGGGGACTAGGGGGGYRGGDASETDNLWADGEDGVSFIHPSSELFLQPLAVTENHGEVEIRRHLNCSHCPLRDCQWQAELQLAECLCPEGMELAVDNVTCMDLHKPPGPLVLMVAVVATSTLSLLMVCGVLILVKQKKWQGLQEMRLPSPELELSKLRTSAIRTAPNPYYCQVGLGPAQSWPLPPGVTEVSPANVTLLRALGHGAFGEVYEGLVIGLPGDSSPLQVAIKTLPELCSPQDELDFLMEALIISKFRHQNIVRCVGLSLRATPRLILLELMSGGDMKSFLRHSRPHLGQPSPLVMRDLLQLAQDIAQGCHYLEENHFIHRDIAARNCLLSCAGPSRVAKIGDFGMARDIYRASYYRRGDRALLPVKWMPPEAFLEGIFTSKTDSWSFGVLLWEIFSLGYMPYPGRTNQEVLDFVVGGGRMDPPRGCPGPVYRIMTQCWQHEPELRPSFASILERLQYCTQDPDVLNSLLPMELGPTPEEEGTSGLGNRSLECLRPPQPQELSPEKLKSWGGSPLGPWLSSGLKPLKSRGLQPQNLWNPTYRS
Sequence of Tyrosine-protein kinase JAK1 (Homo sapiens) (P23458 whole entry): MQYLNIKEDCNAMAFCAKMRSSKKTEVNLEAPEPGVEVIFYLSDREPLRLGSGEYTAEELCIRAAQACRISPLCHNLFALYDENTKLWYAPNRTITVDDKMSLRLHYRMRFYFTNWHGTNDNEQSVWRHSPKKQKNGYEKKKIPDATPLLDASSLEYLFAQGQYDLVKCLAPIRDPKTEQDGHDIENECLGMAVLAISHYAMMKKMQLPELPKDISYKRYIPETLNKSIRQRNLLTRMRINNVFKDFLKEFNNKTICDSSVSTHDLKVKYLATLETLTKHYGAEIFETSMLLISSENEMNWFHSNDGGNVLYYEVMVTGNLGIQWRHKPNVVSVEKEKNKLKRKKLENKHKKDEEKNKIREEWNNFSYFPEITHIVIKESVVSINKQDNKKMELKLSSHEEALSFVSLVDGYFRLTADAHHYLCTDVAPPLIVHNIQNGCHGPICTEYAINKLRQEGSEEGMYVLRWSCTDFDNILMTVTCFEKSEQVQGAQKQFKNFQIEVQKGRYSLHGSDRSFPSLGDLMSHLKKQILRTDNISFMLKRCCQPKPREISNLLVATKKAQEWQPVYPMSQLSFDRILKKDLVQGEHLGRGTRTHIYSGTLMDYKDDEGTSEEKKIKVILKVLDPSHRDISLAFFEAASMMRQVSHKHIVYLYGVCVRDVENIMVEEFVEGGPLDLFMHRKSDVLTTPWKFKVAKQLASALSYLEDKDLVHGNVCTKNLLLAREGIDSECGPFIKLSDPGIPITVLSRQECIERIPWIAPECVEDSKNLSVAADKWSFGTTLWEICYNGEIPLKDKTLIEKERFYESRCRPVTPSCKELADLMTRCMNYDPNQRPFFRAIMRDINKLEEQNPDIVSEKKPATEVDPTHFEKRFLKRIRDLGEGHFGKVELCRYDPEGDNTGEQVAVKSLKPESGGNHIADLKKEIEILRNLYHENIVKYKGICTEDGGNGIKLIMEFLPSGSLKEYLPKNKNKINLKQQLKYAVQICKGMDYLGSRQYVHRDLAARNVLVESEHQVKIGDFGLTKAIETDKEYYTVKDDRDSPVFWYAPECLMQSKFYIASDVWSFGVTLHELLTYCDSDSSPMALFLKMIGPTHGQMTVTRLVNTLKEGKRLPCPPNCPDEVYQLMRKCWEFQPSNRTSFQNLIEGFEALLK
Sequence of Serine/threonine-protein kinase SIK1 (Homo sapiens) (P57059 whole entry): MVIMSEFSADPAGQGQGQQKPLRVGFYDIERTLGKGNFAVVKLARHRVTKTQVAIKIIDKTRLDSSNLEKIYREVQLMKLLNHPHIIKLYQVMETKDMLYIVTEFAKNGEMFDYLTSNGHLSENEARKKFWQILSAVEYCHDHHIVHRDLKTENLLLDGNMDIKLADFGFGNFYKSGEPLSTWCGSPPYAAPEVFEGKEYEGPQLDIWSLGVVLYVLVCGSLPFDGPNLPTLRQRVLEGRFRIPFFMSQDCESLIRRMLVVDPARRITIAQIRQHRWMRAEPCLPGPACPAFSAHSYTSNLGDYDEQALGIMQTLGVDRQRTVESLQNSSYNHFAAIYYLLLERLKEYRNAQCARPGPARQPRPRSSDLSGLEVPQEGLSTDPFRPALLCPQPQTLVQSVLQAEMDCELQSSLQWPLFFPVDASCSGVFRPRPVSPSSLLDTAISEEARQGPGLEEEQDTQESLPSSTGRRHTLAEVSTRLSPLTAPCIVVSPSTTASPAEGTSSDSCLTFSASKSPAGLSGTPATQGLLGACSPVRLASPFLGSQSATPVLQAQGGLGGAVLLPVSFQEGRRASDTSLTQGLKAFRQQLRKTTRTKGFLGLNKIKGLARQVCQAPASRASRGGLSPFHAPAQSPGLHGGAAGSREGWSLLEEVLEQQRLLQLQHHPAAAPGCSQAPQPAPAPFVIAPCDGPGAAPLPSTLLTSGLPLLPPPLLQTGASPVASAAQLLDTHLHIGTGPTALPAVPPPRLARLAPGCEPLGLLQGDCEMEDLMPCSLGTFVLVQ

By inhibition is commonly meant the percentage by which the read-out fell short of the control. As to `O=C(N[C@@H](C1CC1)C(F)(F)F)c1cc(-c2cnn3cc(-c4ccc(F)cc4)cnc23)cs1`, the inhibition in experiment [1] came out at 0%; in [3], 6%. Also, in experiment [2], the fold change (FC) turned out to be 0.
Consider `CNC(=O)c1ccccc1Oc1nc(Nc2cc(OC)c(OC)c(OC)c2)ncc1Br`, for which the inhibition in experiment [4] came out at 0%; in [5], 3%; in [6], 6%; in experiment [7] it was 20%.
Regarding `CC(C)[C@H](NC(=O)c1cc(-c2cnn3cc(-c4ccc(OCCN5CCCCC5)cc4)cnc23)cs1)C(F)(F)F`, the inhibition came to 4% in [8] and 0% in [9]. In addition, the fold change (FC) in the experiment filed under Homo sapiens was found to be 0.16; in [10], 0; in experiment [11], 0.06; in experiment [12] it was 0.26.
